In patent US20060264508A1, “Modulation of ocular growth and myopia by gaba drugs” (priority 2001, published 2006):
“Also recorded” adds a separate entry of the source. Structures can show the parent of a compound that is named as a salt. Where two headings read alike, the source gives them in different places.

Assays:
[1] = system: goggled eyes (form-deprivation myopia); details: daily intravitreal injection, result in words
non-goggled eyes = assay type: in vivo, White leghorn chicks; details: for Equatorial diameter (calipers) / axial length calipers / axial length ultrasound / refraction / vitreous chamber depth (ultrasound): daily intravitreal dose(s) at which drug-treated differ from contralateral vehicle-treated eyes (P<0.05, Tukey test); for effect on lens thickness / anterior chamber depth, drug-treated vs vehicle-treated eyes: primary outcome comparison
Excerpt: Chicks were anesthetized with inhalation ether for all goggle applications and drug injections. The experimental eye was the right eye in half of the chicks, and the left eye in the other half of the chicks, assigned in an alternating order within each group. Form-deprivation myopia was induced by attaching a unilateral translucent white plastic goggle to the periorbital feathers with cyanoacrylate glue. All research conformed with the ARVO Resolution on the Use of Animals in Ophthalmic and Vision Research.
All goggle applications and/or drug injections began when the chicks reached one week of age. At about four hours into the light phase, a 10 μl intravitreal injection of either drug+vehicle or vehicle alone was given under aseptic conditions to the goggled or experimental non-goggled eye, with all contralateral eyes concurrently receiving vehicle injections.
On this day, the animals received no intraocular injections. […] While still under general anesthesia, the chicks were decapitated; and the axial and equatorial dimensions of enucleated eyes were measured with digital calipers. As the coronal profile of the chick eye is elliptical, the equatorial dimension was reported as the mean of the shortest and longest equatorial dimensions.
For goggled chicks, the primary measure of outcome was the drug effect on the ocular response to wearing a goggle, and comparisons of individual doses to each other and to vehicle-treated controls for each drug. Differences in refraction and each size measurement between goggled and contralateral eyes were assessed by one-way analysis of variance (ANOVA). For non-goggled chicks, the primary outcome measure was comparison of drug-treated to contralateral vehicle-treated eyes using a two-way repeated measures ANOVA (one factor replication, using eye as the replicated factor) for refractions and measurements.
The statistical outcomes with the two-way ANOVA are mainly described by the drug-treated to contralateral eye comparison. […] When the ANOVA assumptions of normality or equal variance were not met, the corresponding ANOVA on ranks was used. […] The Figures show the P values when the overall ANOVA reached a significance level of at least P<0.05, and the post-hoc tests for within group comparisons appear in the Tables that follow.

[2] = non-goggled eyes, drug-treated vs contralateral vehicle-treated eyes, result in words
[3] = non-goggled chicks receiving the 10 μg dose, mean±S.E.M.
[4] = non-goggled chicks, 10 μg dose, mean±S.E.M.
[5] = non-goggled chicks, contralateral vehicle-treated eyes
[6] = non-goggled chicks, drug-treated eyes
[7] = non-goggled eyes, result in words
[8] = non-goggled eyes, drug-treated vs contralateral vehicle-treated eyes, result in words, listed as muscimol, hydrobromide

Row | SMILES | effect on axial dimensions (axial length, vitreous chamber depth; ultrasound or calipers) of goggled eyes [1] | effect on myopic refraction of goggled eyes [1] | overall effect on form-deprivation myopia (refraction and size measurements) of goggled eyes [1] | Equatorial diameter (calipers) (non-goggled eyes; non-goggled eyes) | axial length calipers (non-goggled eyes; non-goggled eyes) | axial length ultrasound (non-goggled eyes; non-goggled eyes) | vitreous chamber depth (ultrasound) (non-goggled eyes; non-goggled eyes) | effect on axial growth / axial length and vitreous chamber depth of non-goggled eyes (non-goggled eyes; [2]) | effect on refraction of non-goggled eyes (non-goggled eyes; [2]) | further results
1 | NCC(O)(CS(=O)(=O)O)c1ccc(Cl)cc1 (stereo not drawn) [2OH-saclofen, 2-hydroxysaclofen] | none of the tendencies of either drug to reduce ocular dimensions by ultrasound or calipers reached statistical significance | reduced the myopic refractions |  |  |  |  |  |  |  | 
2 | NC[C@H](CC(=O)O)c1ccc(Cl)cc1 [Baclofen, R(+)-baclofen] | neither the ultrasound nor the caliper measurements revealed statistically significant growth inhibition | partially reduced the myopic refractive error | weak anti-myopia effect | n.s. (n.s., P ≧ 0.05 by ANOVA) | * (P < 0.05 by ANOVA for drug-treated vs. contralateral eyes, but no specific pair-wise comparison identified by the Tukey test.) | n.s. (n.s., P ≧ 0.05 by ANOVA) | 100 µg | modest deepening of the vitreous chamber | None of the other effects of baclofen on the non-goggled eyes, including refractions (data not shown), reached statistical significance | refraction (non-goggled eyes; non-goggled eyes): n.s. (n.s., P ≧ 0.05 by ANOVA)
3 | NC/C=C\C(=O)O [CACA, cis-4-aminocrotomc acid] | not accompanied by any statistically identifiable changes in axial measurements | modest, perhaps biphasic effect | none of the size measurements were altered | n.s. (n.s., P ≧ 0.05 by ANOVA) | n.s. (n.s., P ≧ 0.05 by ANOVA) | 50 µg | n.s. (n.s., P ≧ 0.05 by ANOVA) | slightly stimulated axial length by ultrasound; also recorded: stimulate axial growth to a modest degree | not affecting refraction; also recorded: without altering refraction | effect on equatorial diameter / equatorial expansion of goggled eyes (calipers) [1]: no change in the equatorial dimension; anterior chamber depth of contralateral vehicle-treated eyes (non-goggled eyes; [3]): 1.31±0.03 mm; lens thickness of contralateral vehicle-treated eyes (non-goggled eyes; [3]): 2.22±0.02 mm; anterior chamber depth of drug-treated eyes (non-goggled eyes; [4]): 1.32±0.03 mm; lens thickness of drug-treated eyes (non-goggled eyes; [4]): 2.22±0.02 mm; lens thinner in contralateral vehicle-treated eyes at 10 μg than in the other two cohorts (100 or 200 μg) (non-goggled eyes; [5]): 0.10 mm; anterior chambers deeper at the 10 μg dose than at the higher doses (non-goggled eyes; non-goggled chicks, drug- and vehicle-treated eyes, vs 50, 100 or 200 μg): 0.08-0.14 mm; lens thinner in drug-treated eyes at 10 μg than at the 100 or 200 μg doses (non-goggled eyes; [6]): 0.16 mm; refraction (non-goggled eyes; non-goggled eyes): n.s. (n.s., P ≧ 0.05 by ANOVA); effect on equatorial diameter of non-goggled eyes (non-goggled eyes; [2]): without altering refraction or affecting equatorial diameter; effect on lens thickness / anterior chamber depth, drug-treated vs vehicle-treated eyes (non-goggled eyes; [7]): did not affect lens thickness or anterior chamber depth
4 | CCOC(OCC)P(=O)(O)CCCN [CGP35348, (3-aminopropyl)(diethoxy-methyl)phosphinic acid] |  |  | no statistical effect |  |  |  |  |  |  | 
5 | NCCCP(=O)(O)CC1CCCCC1 [CGP46381, (3-aminopropyl)(cyclo-hexylmethyl)phosphinic acid] | inhibited the myopic refractive shift, the axial and vitreous chamber elongation | inhibited the myopic refractive shift | potent anti-myopia effects; also recorded: inhibiting myopia and limiting axial vitreous chamber and equatorial expansion | n.s. (n.s., P ≧ 0.05 by ANOVA) | n.s. (n.s., P ≧ 0.05 by ANOVA) | n.s. (n.s., P ≧ 0.05 by ANOVA) | 100 µg | slightly enhanced vitreous chamber length | did not exert statistically identifiable changes | effect on equatorial diameter / equatorial expansion of goggled eyes (calipers) [1]: inhibited the myopic refractive shift, the axial and vitreous chamber elongation, and the equatorial expansion; lens thickness of contralateral vehicle-treated eyes (non-goggled eyes; [3]): 2.26±0.03 mm; lens thickness of drug-treated eyes (non-goggled eyes; [4]): 2.27±0.04 mm; lens thicker in vehicle-treated eyes at 10 μg than at the 100 μg dose (non-goggled eyes; [5]): 0.06 mm; lens thicker in drug-treated eyes at 10 μg than at the 100 μg dose (non-goggled eyes; [6]): 0.07 mm; effect on equatorial diameter of non-goggled eyes (non-goggled eyes; [2]): did not exert statistically identifiable changes; effect on lens thickness / anterior chamber depth, drug-treated vs vehicle-treated eyes (non-goggled eyes; [7]): no influence on lens thickness
6 | NCc1cc(=O)[nH]o1 [Muscimol, Muscimol hydrobromide] |  |  | did not affect refraction, ultrasound or caliper measurements |  |  |  |  |  |  | refraction of contralateral vehicle-treated eyes (non-goggled eyes; non-goggled chicks, 5 μg daily dose to the other eye, mean±S.E.M.): 0.86±0.58 D; refraction of contralateral vehicle-treated eyes (non-goggled eyes; non-goggled chicks, 10 μg daily dose to the other eye, mean±S.E.M.): +0.11±0.82 D; refraction of contralateral vehicle-treated eyes (non-goggled eyes; non-goggled chicks, 50 μg daily dose to the other eye, mean±S.E.M.): 1.78±1.21 D; refraction of contralateral vehicle-treated eyes (non-goggled eyes; non-goggled chicks, 200 μg daily dose to the other eye, mean±S.E.M.): 3.82±0.83 D; dose of maximum effect on refraction (shift to myopia) of non-goggled eyes (non-goggled eyes; non-goggled eyes, daily intravitreal injection): 50 µg; effect on refraction of non-goggled eyes (non-goggled eyes; non-goggled eyes, drug-treated vs contralateral vehicle-treated eyes, result in words, hydrobromide): induces a statistically significant myopic shift in refraction; effect on axial growth / axial length and vitreous chamber depth of non-goggled eyes (non-goggled eyes; [8]): stimulated axial growth as measured by either ultrasound or calipers, and deepened the vitreous chamber; also recorded: increasing not only axial and vitreous chamber lengths; effect on equatorial diameter of non-goggled eyes (non-goggled eyes; [8]): increased the equatorial diameter; also recorded: expanding the equatorial diameter; effect on refraction of non-goggled eyes (non-goggled eyes; [8]): shifted the refraction to myopia; also recorded: statistically significant shift in refraction
7 | CC1(C)CO[C@@H](CC(=O)O)CN1 [SCH50911, (+)-(2S)-5,5-dimethyl-2-morpholineacetic acid] | none of the tendencies of either drug to reduce ocular dimensions by ultrasound or calipers reached statistical significance | reduced the myopic refractions |  |  |  |  |  |  |  | 
8 | NC/C=C/C(=O)O [TACA, Trans-4-aminocrotonic acid] |  |  | no statistically significant effects |  |  |  |  |  |  | overall effect on refraction and ocular size / eye growth of non-goggled eyes (non-goggled eyes; [2]): influenced neither refraction nor ocular size measurements
